Legend:
[1] = test system: HCM pigs (heterozygous MYH7 R403Q mutation); experiment: Chronic Compound A treatment in mini-pig model of inherited HCM: mortality, cTnT, cardiac MRI; assay type: in vivo, Yucatan mini-pigs; conditions: chronic treatment PO
Description: (§1) FIG. 1 is a schematic diagram showing the design for an experiment on the chronic effects of Compound A on HCM and on left atrial and left ventricular geometry and function in a mini-pig model of inherited HCM (“HCM pigs”). Compound A dose is increased over the first 12 weeks of the study to account for weight gain. CMPD A: Compound A. CTRL: control. cMR: cardiac MRI. PV: LV pressure and volume studies (invasive hemodynamics). RNA: LV gene expression studies. HIST: histology. BIO: LV/LA fiber biomechanical studies.
This Example describes an in vivo study that evaluates the chronic effects of Compound A, in a genetic large-animal model of HCM.
(§2) Young (~1 month) cloned Yucatan mini-pigs with a heterozygous MYH7 R403Q mutation (“HCM pigs”) were treated and evaluated as shown in FIG. 1. The pigs were randomly assigned to one of two arms: untreated controls (CTRL, n=29) or daily Compound A (n=22; PO); untreated wild-type pigs (WT) served as […]. The pigs treated with Compound A were divided into two cohorts: A and B. Treated animals received progressively increasing Compound A doses (5, 7.5, 10, and 15 mg/day PO) to account for weight gain. After 14 weeks of treatment, pigs underwent in vivo cardiac MRI (cMR) imaging, including T1 mapping and extracellular volume (ECV) assessments. […]

α-MHC / β-MHC in the LA = experiment: LA myosin isoform content (α-MHC to β-MHC conversion) in HCM pigs; assay type: in vivo, Yucatan mini-pigs; conditions: HCM pigs (FIG. 3), in comparison to untreated HCM pig controls
Description: as §1
FIG. 3 is a set of graphs showing the effects of Compound A on left atrial (LA) geometry and function in HCM pigs.
as §2

[2] = biological target: T1, bovine cardiac synthetic myosin filaments (Bos taurus, UniProt Q9BE39); experiment: DRX and SRX ATPase rates in bovine cardiac synthetic myosin filaments; assay type: biochemical; conditions: role: inhibitor, range of concentrations (FIG. 5), Compound A compared with mavacamten
T1 construct: single-turnover ATPase (DRX/SRX)
T1 sequence (Q9BE39 whole entry): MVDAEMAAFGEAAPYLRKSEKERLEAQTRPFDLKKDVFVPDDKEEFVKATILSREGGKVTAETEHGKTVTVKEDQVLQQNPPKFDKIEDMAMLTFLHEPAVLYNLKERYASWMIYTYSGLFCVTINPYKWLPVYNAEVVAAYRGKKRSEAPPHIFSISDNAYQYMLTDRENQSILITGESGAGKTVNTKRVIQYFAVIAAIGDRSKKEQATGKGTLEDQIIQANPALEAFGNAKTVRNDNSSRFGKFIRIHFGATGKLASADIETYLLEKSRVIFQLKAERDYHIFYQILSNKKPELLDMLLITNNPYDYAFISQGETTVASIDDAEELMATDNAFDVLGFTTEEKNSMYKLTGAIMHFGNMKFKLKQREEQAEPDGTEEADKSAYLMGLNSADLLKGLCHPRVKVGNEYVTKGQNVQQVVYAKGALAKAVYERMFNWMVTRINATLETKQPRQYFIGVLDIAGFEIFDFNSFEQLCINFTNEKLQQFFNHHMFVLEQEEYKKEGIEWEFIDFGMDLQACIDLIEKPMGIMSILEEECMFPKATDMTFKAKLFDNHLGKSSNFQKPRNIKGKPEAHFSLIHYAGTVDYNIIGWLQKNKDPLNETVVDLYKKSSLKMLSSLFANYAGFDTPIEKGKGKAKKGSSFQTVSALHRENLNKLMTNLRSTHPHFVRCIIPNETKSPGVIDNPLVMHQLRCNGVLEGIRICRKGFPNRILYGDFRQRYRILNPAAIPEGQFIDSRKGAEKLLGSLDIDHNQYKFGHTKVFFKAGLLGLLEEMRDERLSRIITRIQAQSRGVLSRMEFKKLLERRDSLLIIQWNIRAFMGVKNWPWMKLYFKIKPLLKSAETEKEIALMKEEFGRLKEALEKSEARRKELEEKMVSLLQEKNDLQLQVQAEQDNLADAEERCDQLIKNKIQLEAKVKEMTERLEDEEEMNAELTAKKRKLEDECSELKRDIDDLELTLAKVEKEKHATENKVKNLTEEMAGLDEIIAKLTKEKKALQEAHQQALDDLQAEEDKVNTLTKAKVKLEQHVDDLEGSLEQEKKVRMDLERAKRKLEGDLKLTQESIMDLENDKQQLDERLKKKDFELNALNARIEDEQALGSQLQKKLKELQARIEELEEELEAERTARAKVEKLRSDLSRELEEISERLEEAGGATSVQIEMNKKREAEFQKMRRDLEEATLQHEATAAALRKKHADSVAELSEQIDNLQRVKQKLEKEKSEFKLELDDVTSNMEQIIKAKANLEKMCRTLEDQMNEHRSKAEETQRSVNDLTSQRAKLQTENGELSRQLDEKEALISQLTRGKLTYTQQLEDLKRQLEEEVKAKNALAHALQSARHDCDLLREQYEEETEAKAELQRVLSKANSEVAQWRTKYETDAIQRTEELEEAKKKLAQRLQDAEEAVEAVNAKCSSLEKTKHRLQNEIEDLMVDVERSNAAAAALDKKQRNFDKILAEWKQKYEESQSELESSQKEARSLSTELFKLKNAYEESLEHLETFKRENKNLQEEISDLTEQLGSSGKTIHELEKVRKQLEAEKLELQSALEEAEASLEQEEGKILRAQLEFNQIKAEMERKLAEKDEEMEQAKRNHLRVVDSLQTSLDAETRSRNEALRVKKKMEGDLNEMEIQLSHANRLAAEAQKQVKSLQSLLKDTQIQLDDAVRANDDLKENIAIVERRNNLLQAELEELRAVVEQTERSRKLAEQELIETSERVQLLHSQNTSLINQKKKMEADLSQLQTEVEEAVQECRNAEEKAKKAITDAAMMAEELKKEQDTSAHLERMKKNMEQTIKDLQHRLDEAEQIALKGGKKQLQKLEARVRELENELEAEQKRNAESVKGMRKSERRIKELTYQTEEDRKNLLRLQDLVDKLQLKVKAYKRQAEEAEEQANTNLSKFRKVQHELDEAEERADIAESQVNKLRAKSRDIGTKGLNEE
T1 sequence (P85100 whole entry partner): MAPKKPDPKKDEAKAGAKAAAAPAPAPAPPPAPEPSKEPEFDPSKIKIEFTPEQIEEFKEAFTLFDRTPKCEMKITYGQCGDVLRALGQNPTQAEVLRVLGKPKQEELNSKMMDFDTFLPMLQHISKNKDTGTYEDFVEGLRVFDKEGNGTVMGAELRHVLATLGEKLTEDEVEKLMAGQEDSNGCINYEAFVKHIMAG
T1 sequence (Q3SZE5 whole entry partner): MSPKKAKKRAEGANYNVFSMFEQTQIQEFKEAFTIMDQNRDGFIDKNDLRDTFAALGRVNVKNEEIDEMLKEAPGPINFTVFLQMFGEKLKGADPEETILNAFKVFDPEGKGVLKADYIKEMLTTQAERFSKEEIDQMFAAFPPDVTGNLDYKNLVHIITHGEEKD

disordered relaxed state (DRX) ATPase rate (as a fraction of control) [2] | super-relaxed state (SRX) ATPase rate (as a fraction of control) [2] | Structure (SMILES) | left atrial remodeling [1] | conversion of α-MHC to β-MHC in the LA (α-MHC / β-MHC in the LA)
similar | similar | CC(C)n1c(=O)cc(N[C@@H](C)c2cccc(F)c2)[nH]c1=O [Compound A] | prevented left atrial remodeling | prevented the conversion of α-MHC to β-MHC in the LA
similar | similar | CC(C)n1c(=O)cc(N[C@@H](C)c2ccccc2)[nH]c1=O [mavacamten] | – | –

From patent publication US20260364073A1, “MAVACAMTEN AND DERIVATIVES THEREOF FOR USE IN TREATING ATRIAL DYSFUNCTION” (MyoKardia, Inc., priority 2022, published 2026)
